Experimental data taken from US20230292752A1, “S[…] COMBINATIONS, COMPOSITIONS AND USE THEREOF” (UPL Corporation Limited, priority 2020, published 2023).

Key:
Type in all cases: in vivo
Setaria weeds = experiment: Trial on table grapes, clethodim and pyraflufen-ethyl, Setaria weed control; conditions: 28 days after treatment
Description: Clethodim and pyraflufen-ethyl were tested on table grapes as individual applications, premix and tank-mix combinations. The products were formulated as an EC formulation and compared with Glufosinate SC. Effect of the treatment was checked on Setaria weeds at 28 days after treatment.

Green foxtail = experiment: Pot trial, clethodim and pyraflufen-ethyl, green foxtail; conditions: 4 DAT
Description: (§1) Pot trials for clethodim, pyraflufen-ethyl and their combination (premix and tan-mix) were carried out against green foxtail, large crabgrass and Bermuda grass

[1] = tested on: Convolvulus arvensis CONAR; experiment: Field trial, clethodim and carfentrazone-ethyl, weed control on Convolvulus arvensis
Description: (§2) Field trials were performed to evaluate the efficacy of present combination, clethodim and carfentrazone-ethyl on annual grass control and dicot control in perennial crops. • Grass weeds targeted: LOLSS, BROSS, ECHSS, DIGSS, SETS S • Dicot weeds targeted: ERISS, GERSS, Sonchus sp., CONAR, Malva sp (rosette stage when application, prior stem elongation, prior flowering, prior ground cover) • Application volume: 300 L/ha
(§3) Colby's equation was used to determine the herbicidal effects expected from the mixtures. (See Colby, S. R. Calculation of the synergistic and antagonistic response of herbicide combinations. Weeds 1967, 15, 20-22.)
(§4) The following equation was used to calculate the expected activity of mixtures containing two active ingredients, A and B:
(§5) Expected=A+B−(A×B/100) • A=observed efficacy of active component A at the same concentration as used in the mixture; • B=observed efficacy of active component B at the same concentration as used in the mixture. The ability of the compositions described herein to afford suitable weed control is illustrated by the efficacy data in Table 3 to 10
Biological Activity Observed with Synergistic Mixtures of Clethodim and Carfentrazone in Applications on Convolvulus arvensis CONAR (n=2) 14-15 DAA.

Lolium multiflorum LOLMU = experiment: Field trial, clethodim and carfentrazone-ethyl, weed control on Lolium multiflorum
Description: as §2, §3, §4, §5
Biological Activity Observed with Synergistic Mixtures of Clethodim and Carfentrazone in Applications on Lolium multiflorum LOLMU (n=2) 56-59 DAA was represented in table below

Setaria pumila SETPU = experiment: Field trial, clethodim and carfentrazone-ethyl, weed control on Setaria pumila
Description: as §2, §3, §4, §5
Biological Activity Observed with Synergistic Mixtures of Clethodim and Carfentrazone in Applications on Setaria pumila SETPU (n=1) 56-59 DAA was represented in table below

Sonchus oleraceus SONOL = experiment: Field trial, clethodim and carfentrazone-ethyl, weed control on Sonchus oleraceus
Description: as §2, §3, §4, §5
Biological Activity Observed with Synergistic Mixtures of Clethodim and Carfentrazone in Applications on Sonchus oleraceus SONOL (n=2) 14-15 DAA

Portulaca oleracea POROL = experiment: Field trial, clethodim and carfentrazone-ethyl, weed control on Portulaca oleracea
Description: as §2, §3, §4, §5
Biological Activity Observed with Synergistic Mixtures of Clethodim and Carfentrazone in Applications on Portulaca oleracea POROL (n=1) 14 DAA.

[2] = tested on: Digitaria sanguinalis DIGSA; experiment: Field trial, clethodim and carfentrazone-ethyl, weed control on Digitaria sanguinalis
Description: as §2, §3, §4, §5
Biological Activity Observed with Synergistic Mixtures of Clethodim and Carfentrazone (Carfentrazone-ethyl) in Applications on Digitaria sanguinalis DIGSA (n=2) at 56-59 DAA was represented in table below.

Senecio vulgaris SENVU = experiment: Field trial, clethodim and carfentrazone-ethyl, weed control on Senecio vulgaris
Description: as §2, §3, §4, §5
Biological Activity Observed with Synergistic Mixtures of Clethodim and Carfentrazone in Applications on Senecio vulgaris SENVU (n=1) 14 DAA.

[3] = tested on: Echinochloa crus-galli ECHCG; experiment: Field trial, clethodim and carfentrazone-ethyl, weed control on Echinochloa crus-galli
Description: as §2, §3, §4, §5
Biological Activity Observed with Synergistic Mixtures of Clethodim and Carfentrazone in Applications on Echinochloa crus-galli ECHCG (n=2) 56-59 DAA was represented in table below.

Large crabgrass = experiment: Pot trial, clethodim and pyraflufen-ethyl, large crabgrass; conditions: 4 DAT
Description: as §1

Bermuda grass = experiment: Pot trial, clethodim and pyraflufen-ethyl, Bermuda grass; conditions: 4 DAT
Description: as §1

[4] = carfentrazone 60 gai/ha, clethodim 0, n=2
[5] = carfentrazone 30 gai/ha, clethodim 0, n=2
[6] = carfentrazone 45 gai/ha, clethodim 0, n=2
[7] = carfentrazone 12 gai/ha, clethodim 0, n=1
[8] = carfentrazone 20 gai/ha, clethodim 0, n=1
[9] = carfentrazone 30 gai/ha, clethodim 0, n=1
[10] = carfentrazone 45 gai/ha, clethodim 0, n=1
[11] = carfentrazone 60 gai/ha, clethodim 0, n=1
[12] = clethodim 120 gai/ha, carfentrazone 0, n=2
[13] = clethodim 180 gai/ha, carfentrazone 0, n=2
[14] = clethodim 72 gai/ha, carfentrazone 0, n=1
[15] = clethodim 120 gai/ha, carfentrazone 0, n=1
[16] = clethodim 180 gai/ha, carfentrazone 0, n=1

CP(=O)(O)CCC(N)C(=O)O (stereo not shown) [Glufosinate]
Weed control % (Observed efficacy) (Setaria weeds; 700 g ai/ha): 85%
% control (observed) (Green foxtail; 350 gai/ha): 65%
% control (observed) (Green foxtail; 700 gai/ha): 75%

CCOC(=O)C(Cl)Cc1cc(-n2nc(C)n(C(F)F)c2=O)c(F)cc1Cl (stereo not shown) [Carfentrazone, Carfentrazone-ethyl]
Observed Efficacy (O) in % (14-15 DAA) ([1]; carfentrazone 12 gai/ha, clethodim 0, n=2): 58%
Observed Efficacy (O) in % (14-15 DAA) [1, 4]: 93%
Observed Efficacy (O) in % (56-59 DAA) (Lolium multiflorum LOLMU; [5]): 50%
Observed Efficacy (O) in % (56-59 DAA) (Lolium multiflorum LOLMU; [6]): 50%
Observed Efficacy (O) in % (56-59 DAA) (Lolium multiflorum LOLMU; [4]): 50%
Observed Efficacy (O) in % (56-59 DAA) (Setaria pumila SETPU; [7]): 0%
Observed Efficacy (O) in % (56-59 DAA) (Setaria pumila SETPU; [8]): 0%
Observed Efficacy (O) in % (56-59 DAA) (Setaria pumila SETPU; [9]): 0%
Observed Efficacy (O) in % (56-59 DAA) (Setaria pumila SETPU; [10]): 0%
Observed Efficacy (O) in % (56-59 DAA) (Setaria pumila SETPU; [11]): 0%
Observed Efficacy (O) in % (14-15 DAA) (Sonchus oleraceus SONOL; carfentrazone 20 gai/ha, clethodim 0, n=2): 89%
Observed Efficacy (O) in % (14-15 DAA) (Sonchus oleraceus SONOL; [5]): 92%
Observed Efficacy (O) in % (14 DAA) (Portulaca oleracea POROL; [8]): 90%
Observed Efficacy (O) in % (14 DAA) (Portulaca oleracea POROL; [9]): 97%
Observed Efficacy (O) in % (14 DAA) (Portulaca oleracea POROL; [10]): 100%
Observed Efficacy (O) in % (14 DAA) (Portulaca oleracea POROL; [11]): 100%
Observed Efficacy (O) in % (56-59 DAA) [2, 5]: 13%
Observed Efficacy (O) in % (56-59 DAA) [2, 6]: 27%
Observed Efficacy (O) in % (56-59 DAA) [2, 4]: 17%
Observed Efficacy (O) in % (14 DAA) (Senecio vulgaris SENVU; [7]): 88%
Observed Efficacy (O) in % (14 DAA) (Senecio vulgaris SENVU; [8]): 92%
Observed Efficacy (O) in % (14 DAA) (Senecio vulgaris SENVU; [9]): 97%
Observed Efficacy (O) in % (14 DAA) (Senecio vulgaris SENVU; [10]): 100%
Observed Efficacy (O) in % (14 DAA) (Senecio vulgaris SENVU; [11]): 100%
Observed Efficacy (O) in % (56-59 DAA) [3, 5]: 57%
Observed Efficacy (O) in % (56-59 DAA) [3, 4]: 59%

CCOC(=O)COc1cc(-c2nn(C)c(OC(F)F)c2Cl)c(F)cc1Cl [Pyraflufen-ethyl]
% control (observed) (Large crabgrass; 24 gai/ha): 10%
Weed control % (Observed efficacy) (Setaria weeds; 12 g ai/ha, formulated with mineral oil): 0%
% control (observed) (Green foxtail; 24 gai/ha): 20%
% control (observed) (Bermuda grass; 24 gai/ha): 10%

CCSC(C)CC1CC(=O)C(/C(CC)=N/OC/C=C/Cl)=C(O)C1 (stereo not shown) [Clethodim]
Observed Efficacy (O) in % (14-15 DAA) ([1]; clethodim 72 gai/ha, carfentrazone 0, n=2): 8%
Observed Efficacy (O) in % (14-15 DAA) [1, 12]: 12%
Observed Efficacy (O) in % (14-15 DAA) [1, 13]: 8%
% control (observed) (Large crabgrass; 250 gai/ha): 20%
Observed Efficacy (O) in % (56-59 DAA) (Lolium multiflorum LOLMU; [12]): 52%
Observed Efficacy (O) in % (56-59 DAA) (Lolium multiflorum LOLMU; [13]): 74%
Weed control % (Observed efficacy) (Setaria weeds; 125 g ai/ha): 85%
% control (observed) (Green foxtail; 250 gai/ha): 25%
Observed Efficacy (O) in % (56-59 DAA) (Setaria pumila SETPU; [14]): 43%
Observed Efficacy (O) in % (56-59 DAA) (Setaria pumila SETPU; [15]): 50%
Observed Efficacy (O) in % (56-59 DAA) (Setaria pumila SETPU; [16]): 94%
Observed Efficacy (O) in % (14-15 DAA) (Sonchus oleraceus SONOL; [12]): 13%
Observed Efficacy (O) in % (14 DAA) (Portulaca oleracea POROL; [15]): 0%
Observed Efficacy (O) in % (14 DAA) (Portulaca oleracea POROL; [16]): 0%
Observed Efficacy (O) in % (56-59 DAA) [2, 12]: 95%
Observed Efficacy (O) in % (56-59 DAA) [2, 13]: 97%
Observed Efficacy (O) in % (14 DAA) (Senecio vulgaris SENVU; [14]): 0%
Observed Efficacy (O) in % (14 DAA) (Senecio vulgaris SENVU; [15]): 2%
Observed Efficacy (O) in % (14 DAA) (Senecio vulgaris SENVU; [16]): 0%
% control (observed) (Bermuda grass; 250 gai/ha): 20%
Observed Efficacy (O) in % (56-59 DAA) [3, 12]: 84%
Observed Efficacy (O) in % (56-59 DAA) [3, 13]: 97%
